Measured values as given in paper PMC10518717, “High-Throughput Screening and Proteomic Characterization of Compounds Targeting Myeloid-Derived Suppressor Cells” (Molecular & Cellular Proteomics : MCP, 2023).

Tests used:
Arginase = biological target: T1, Arginase (Mus musculus, UniProt Q61176); assay: Arginase activity assay (Arginase Activity Assay Kit) in cell lysates; type: biochemical; settings: NUP-MDSC lysates; titrated amounts of inhibitor
T1 construct: endogenous in cells; host or cells: mouse NUP cells / NUP-MDSC (lysate)
T1 sequence (Q61176 1-323): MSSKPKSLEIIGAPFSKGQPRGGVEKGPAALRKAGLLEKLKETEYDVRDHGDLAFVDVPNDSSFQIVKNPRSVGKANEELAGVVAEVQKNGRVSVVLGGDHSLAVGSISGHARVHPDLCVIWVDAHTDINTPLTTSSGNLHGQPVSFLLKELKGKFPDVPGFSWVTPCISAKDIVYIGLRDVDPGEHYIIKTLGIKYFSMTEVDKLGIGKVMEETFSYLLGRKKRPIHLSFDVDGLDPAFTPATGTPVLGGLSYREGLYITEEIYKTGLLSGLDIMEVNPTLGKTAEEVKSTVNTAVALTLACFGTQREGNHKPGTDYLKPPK
Experimental: Arginase catalyzes the conversion of arginine to urea and ornithine. The urea produced specifically reacts with the assay substrate to generate a colored product, proportional to the arginase activity. Cells were washed with PBS and lysed for 10 min in 10 mM Tris–HCl, pH7.4 containing protease inhibitors and 0.4% (w/v) Triton X-100. Lysates were centrifuged at 13,000g for 10 min, and supernatant was used for analysis. Arginase activity was analyzed using the Arginase Activity Assay Kit (Sigma, MAK112) according to manufacturer’s protocol. Lysates were untreated or treated with titrated amounts of the arginase inhibitor (3R,4S)-3-amino-1-[(2S)-2-aminopropanoyl]-4-(3-boronopropyl)pyrrolidine-3-carboxylic acid. Absorbance (430 nm) was analyzed in an Infinite M1000 Pro (Tecan) plate reader after 120 min of incubation. Arginase activity was determined as follows: arginase activity = absorbance-blank/(urea standard-H2O Control)∗(1 mM∗reaction volume ∗10³/(incubation time in min∗sample volume (μL))). One unit of arginase is the amount of enzyme that will convert 1.0 μmole of L-arginine to ornithine and urea per minute at pH 9.5 and 37 °C.

NUP-MDSC = assay: Global proteome expression profiling of compound-treated NUP-MDSC (TMT LC-MS/MS); type: cell-based, mouse; settings: 72 h; for log2 FC Moce_300/DMSO: 300 nM
Experimental: After treatments, medium was removed, cells were washed twice with PBS, and the cell pellets were further subjected to proteomic sample preparation.
The cell pellet was reconstituted in 2% SDS in 50 mM Tris–HCl pH 7.5 and lysed by heating to 95 °C for 10 min. One microliter of 100% TFA was added to each sample to hydrolyze DNA, and the pH was subsequently adjusted to 8.5 with 3 M Tris solution. Disulfide bonds were reduced with 10 mM DTT for 45 min at 37 °C, followed by alkylation of cysteines with 55 mM CAA for 30 min at room temperature. Prior to tryptic digestion, the detergent was removed from lysates by SP3 cleanup on an Agilent BRAVO system (Agilent Technologies), following the protocol first described by Hughes et al. ([34]). Briefly, lysate containing 200 μg of protein was mixed with SP3 beads, and proteins were precipitated onto a 50:50 mixture of Sera-Mag Speed Bead types A and B (Thermo Fisher Scientific) in 58% acetonitrile. Beads were washed three times with 80% ethanol in water and once with acetonitrile. Tryptic digest was performed in 100 μl of digestion buffer (2 mM CaCl2 in 25 mM Hepes, pH 8.5) with a 1:50 enzyme-to-protein ratio. Bead-precipitated proteins were digested at 37 °C overnight. On the next day, the supernatant of each sample was transferred to a new well and vacuum dried.
Dried peptides were reconstituted in water and labeled with the respective TMT10plex-labeling reagent as described previously ([35]) with a protein to tandem mass tag (TMT) reagent ratio of 1:2. Labeled samples were pooled, vacuum dried, and reconstituted in 0.1% formic acid (FA) prior to desalting on SepPAC50 columns (waters corp.). Peptides were fractionated using a Dionex Ultra 3000 HPLC system with a Waters XBridge BEH130 C18 3.5 um 2.1 × 250 mm column as described previously ([36]). Ninety-six fractions were collected and pooled to 48. For the full proteome analysis, one fifth of each fraction was transferred to a new 96-well plate and both plates were vacuum dried. For the phosphopeptide analysis, dried peptides were reconstituted in 55 μl 0.1% TFA in 30% ACN, pooled from 48 to 12 fractions, and mixed with 70 μl priming buffer (0.1% TFA, 100% ACN). Phosphopeptides were enriched from each of the 12 fractions using Fe(III)-IMAC-NTA cartridges on the AssayMAP BRAVO (Agilent Technologies) platform as described previously ([36]). Phosphopeptides were eluted with 60 μl 1% ammonia, vacuum dried, and stored at −20 °C prior to LC-MS/MS analysis.
The Fusion Lumos was operated in data-dependent acquisition and positive ionization mode. Samples were measured employing a MS3 method. In brief, full scan MS1 spectra were recorded in the orbitrap (OT) from 360 to 1560 m/z at 60,000 resolution using an automatic gain control (AGC) target value of 4e5 charges and a maximum injection time (maxIT) of 50 ms. Iontrap-MS2 spectra for peptide identification were acquired using higher energy collision dissociation (HCD) fragmentation with 32% normalized collision energy (NCE), an isolation window of 0.6 m/z, and an AGC target value of 1.2e4 charges. To obtain quantitative information on TMT reporter ions, each peptide precursor was fragmented again as for MS2 analysis followed by synchronous selection of the up to eight most intense peptide fragments in the iontrap ([37]) and further fragmentation via HCD using a NCE of 55%. The MS3 scan was recorded in the OT at 50,000 resolution (scan range 100–1000 m/z, isolation window of 1.2 m/z, AGC of 1e5 charges, maxIT of 86 ms). The cycle time was 1.2 s, and the dynamic exclusion lasted for 50 s.
Peptide, protein, and phosphorylation site identification and quantification were performed with MaxQuant software (v. 1.6.3.3, https://www.maxquant.org/) with standard settings for reporter ion MS3 unless described otherwise ([39]). Isotope impurities of the TMT lot were specified to allow MaxQuant the automated correction of TMT intensities. […]

NUP-MDSC cell lysate [1] = biological target: T2, NUP-MDSC cell lysate (Mus musculus, UniProt Q8WUR0); assay: Chemoproteomic competition pulldown assay (iCor/iEnt affinity matrix), proteome-wide; type: binding; settings: protein 1600014C10Rik (Protein C19orf12 homolog)
T2 construct: endogenous in cells; host or cells: mouse NUP-MDSC (lysate)
T2 sequence (Q8WUR0 1-141): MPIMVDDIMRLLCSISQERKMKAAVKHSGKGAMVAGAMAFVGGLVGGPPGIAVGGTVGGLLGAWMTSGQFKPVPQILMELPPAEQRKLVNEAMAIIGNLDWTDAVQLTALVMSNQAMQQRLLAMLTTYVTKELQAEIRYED
Description: (§1) Targets of the inhibitors were annotated manually.

NUP-MDSC cell lysate [2] = biological target: T3, NUP-MDSC cell lysate (Mus musculus, UniProt G5E8Z3); assay: as above; type: binding; settings: protein 2310050C09Rik (G5E8Z3)
T3 construct: endogenous in cells; host or cells: mouse NUP-MDSC (lysate)
T3 sequence (G5E8Z3 1-280): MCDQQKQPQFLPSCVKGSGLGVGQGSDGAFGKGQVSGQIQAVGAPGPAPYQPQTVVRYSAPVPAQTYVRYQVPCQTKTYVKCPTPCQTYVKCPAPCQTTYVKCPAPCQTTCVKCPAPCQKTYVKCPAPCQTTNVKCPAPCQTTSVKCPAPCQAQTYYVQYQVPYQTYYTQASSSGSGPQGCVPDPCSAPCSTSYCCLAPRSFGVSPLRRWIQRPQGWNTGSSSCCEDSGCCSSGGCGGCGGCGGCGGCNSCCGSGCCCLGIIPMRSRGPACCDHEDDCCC
Description: as §1

A594 cells = assay: CellROX-based detection of ROS levels; type: cell-based; settings: 48 h treatment (compound 2 7.8 μM, N-acetyl-cysteine 300 μM), then 200 μM tert-butyl hydroperoxide 2 h; compared to compound 3 10 μM
Experimental: A594 cells were maintained in Fluorobrite DMEM (Thermo Fisher Scientific) supplemented with GlutaMAX (Thermo Fisher Scientific) and 10% fetal bovine serum (PAN Biotech). Cells were seeded onto a 24-well microplate (Ibidi) and treated with DMSO, 7.8 μM compound 2 (3x EC50), 10 μM compound 3, or 300 μM N-acetyl-cysteine for 48 h. After the treatment, cells were incubated with 200 μM tert-butyl hydroperoxide (Sigma) for 2 h to stimulate ROS production. Then, cells were stained with CellROX deep red (Thermo Fisher Scientific) following the manufacturer’s guidelines. CellROX deep red signal was measured on a Leica DMI 6000 B epifluorescent microscope with a Cy5 filter set. Mean signal intensity per cell was determined from >100 cells per condition from three independent treatments.
For the CellROX assay, three independent treatments were conducted. From each, the mean signal intensity per cell was determined for >100 cells per condition. The statistical significance was calculated by one-way ANOVA followed by a post hoc Tukey’s multiple comparisons test using GraphPad Prism (v.8.3.0).

## C[C@H](N)C(=O)N1C[C@H](CCCB(O)O)[C@](N)(C(=O)O)C1 [arginase inhibitor, (3R,4S)-3-amino-1-[(2S)-2-aminopropanoyl]-4-(3-boronopropyl)pyrrolidine-3-carboxylic acid]
Arginase
  arginase activity: dose dependently decreased

## Nc1ccccc1NC(=O)c1ccc(CNc2nccc(-c3cccnc3)n2)cc1 [mocetinostat]
NUP-MDSC; 30 and 300 nM
  protein expression of Il1a, Il1b, and Il1rn: dose-dependently upregulated
NUP-MDSC; 30 and 300 nM, dose-dependent manner
  protein level of Cxcr3, Ccl9, and Ccr5: increased
NUP-MDSC; protein Cask
  log2 FC Moce_300/DMSO: -0.508
NUP-MDSC; protein Hsf1
  log2 FC Moce_300/DMSO: -0.2561
NUP-MDSC; protein Inpp5j
  log2 FC Moce_300/DMSO: 0.2433
NUP-MDSC; protein Magohb;Magoh
  log2 FC Moce_300/DMSO: -0.03048
NUP-MDSC cell lysate [1]; Mocetinostat 10nM
  Intensity 10nM: 53804000
  LFQ intensity 10nM: 30216000
NUP-MDSC cell lysate [1]; Mocetinostat 30nM
  Intensity 30nM: 64537000
  LFQ intensity 30nM: 37744000
NUP-MDSC cell lysate [1]; Mocetinostat 100nM
  Intensity 100nM: 59266000
  LFQ intensity 100nM: 38158000
NUP-MDSC cell lysate [1]; Mocetinostat 300nM
  Intensity 300nM: 53823000
  LFQ intensity 300nM: 43828000
NUP-MDSC cell lysate [1]; Mocetinostat 1000nM
  Intensity 1000nM: 51502000
  LFQ intensity 1000nM: 40150000
NUP-MDSC cell lysate [1]; Mocetinostat 3000nM
  Intensity 3000nM: 76226000
  LFQ intensity 3000nM: 38853000
NUP-MDSC cell lysate [1]; Mocetinostat 30000nM
  Intensity 30000nM: 39641000
  LFQ intensity 30000nM: 39494000
NUP-MDSC cell lysate [2]; Mocetinostat 10nM
  Intensity 10nM: 25441000
  LFQ intensity 10nM: 9384100
NUP-MDSC cell lysate [2]; Mocetinostat 30nM
  Intensity 30nM: 13403000
  LFQ intensity 30nM: 6282200
NUP-MDSC cell lysate [2]; Mocetinostat 100nM
  Intensity 100nM: 19942000
  LFQ intensity 100nM: 8726600
NUP-MDSC cell lysate [2]; Mocetinostat 300nM
  Intensity 300nM: 13729000
  LFQ intensity 300nM: 7913100
NUP-MDSC cell lysate [2]; Mocetinostat 1000nM
  Intensity 1000nM: 4275900
  LFQ intensity 1000nM: 0
NUP-MDSC cell lysate [2]; Mocetinostat 3000nM
  Intensity 3000nM: 53551000
  LFQ intensity 3000nM: 32269000
NUP-MDSC cell lysate [2]; Mocetinostat 30000nM
  Intensity 30000nM: 25441000
  LFQ intensity 30000nM: 13756000

## CC(=O)N[C@@H](CS)C(=O)O [N-acetyl-cysteine]
A594 cells
  CellROX Deep Red fluorescence (amount of ROS in a cell): decreased significantly
